The values that follow come from patent publication US7759373B2, “Large conductance calcium-activated K channel opener” (Mitsubishi Tanabe Pharma Corporation, priority 2001, dated 2010).

The test system of data set [1] is isolated rabbit urinary bladder. As to the kind of experiment: Relaxation effect on potassium-induced contraction of isolated rabbit urinary bladder. The note with it: Oryctolagus cuniculus; 50% relaxation concentration; high-K+ (30 mM) pre-contracted rabbit bladder strips; relaxation as percentage of the maximum produced by 0.1 mM papaverine; read-out: EC50 value range. The class given is cell-based. The method, boiled down:
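Mucosa-free longitudinal bladder strips from male NZW rabbits, held at 37 °C in Krebs solution gassed with 95% O2/5% CO2, were precontracted with 30 mM K+. Compounds were added cumulatively (10^−8–10^−4 M), with isometric relaxation expressed relative to 0.1 mM papaverine maximum. EC50 was derived and reported as rank ranges.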

In data set [2] the test system is rhythmic bladder contractions induced by substance P. As to the kind of experiment: Inhibitory effect on the rhythmic bladder contractions induced by substance P in anesthetized rats. The class given is in vivo, rat. The note with it: time during which frequency of rhythmic contraction was completely inhibited, 0.25 mg/kg of the compound, substance P infusion. The method, boiled down:
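Value is duration (min) of complete inhibition of bladder contractions, ranked A/B/C at 20 and 10 min cut-offs. Intravenous dosing (0.5% Tween 80 saline) in female SD rats under urethane, bladder saline-filled and contractions maintained by substance P infusion, 0.33 μg/kg/min.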

Structures can show the parent of a compound that is named as a salt.

As usually defined, the melting point is the temperature of the solid-liquid transition. `C[S+]([O-])Cc1nc(-c2cccc(F)c2)[nH]c1-c1ccccc1` (stereo not drawn) (as salt: HCl) [Preparation example 136] registered a melting point of 198 to 200 °C.
Same read-out and setting: in the case of `Fc1cccc(-c2ncc(-c3ccccc3)[nH]2)c1` (as salt: HCl) [Preparation example 41] it was 250 to 255 °C.
`CCOC(=O)Cc1nc(-c2ccc(SC)cc2)oc1-c1ccsc1` [Preparation Example 409] showed a melting point of 77 to 78 °C.
`CNc1[nH]c(-c2ccc(F)cc2)nc1-c1ccccc1` (as salt: hydrochloride) [Preparation example 107, 5-methylamino-2-(4-fluorophenyl)-4-phenylimidazole] showed a melting point of 253 to 255 °C.
The same measure, in the same setting: in the case of `COCc1nc(-c2ccc(F)cc2)[nH]c1-c1ccccc1` (as salt: HCl) [Preparation example 121] it was 204 to 207 °C; in that of `CCCc1nc(C2CCC(=O)N2)[nH]c1-c1cccs1` (stereo not drawn) (as salt: HCl) [Preparation example 4], 234 to 237 °C; in that of `CCCc1nc(-c2ccc(C#N)cc2)[nH]c1-c1ccccc1` (as salt: HCl) [Preparation example 31], 258 to 260 °C.
In turn, `CCCc1nc(-c2ccsc2)[nH]c1-c1ccccc1` (as salt: HCl) [Preparation example 33] yielded a melting point of 215 to 217 °C.
Regarding `CCc1nc(-c2ccc(F)cc2)[nH]c1-c1ccccc1OC` (as salt: HCl) [Preparation example 84], the melting point is 200 to 203 °C (dec.).
Still for that read-out and setting: in the case of `CCCc1nc(-c2ccccc2[N+](=O)[O-])[nH]c1-c1ccccc1` (as salt: HCl) [Preparation example 39] it was 233 to 236 °C; in that of `CCCc1c[nH]c(-c2ccc(F)cc2)n1` [Preparation example 76], 168 to 170 °C; in that of `CCc1nc(-c2ccc(F)cc2)[nH]c1-c1ccc(C)nc1` (as salt: HCl) [Preparation example 47], 260 to 262 °C.
Compound `CCCc1nc(-c2ccc(F)cc2)[nH]c1-c1cc(Cl)ccc1O` (as salt: HCl) [Preparation example 92] gave a melting point of 262 to 264 °C.
The same measure, in the same setting: to `CCOC(=O)Cc1nc(-c2ccc(OC)cc2)oc1-c1cccs1` [Preparation Example 154] belongs 105 to 107 °C.
The compound `CCCc1nc(-c2ccc(NC)cc2)[nH]c1-c1cccs1` (as salt: HCl) [Preparation example 3] displayed a melting point of 175 to 180 °C.
As usually defined, the EC50 is the concentration that produces a half-maximal response. Regarding `O=C(O)Cc1nc(-c2cc3ccc(F)cc3s2)oc1-c1ccc(Cl)s1` [Preparation Example 451], the EC50 in data set [1] is 1 to 3 µM. Moreover, the “100% inhibition time range” value in data set [2] is given as “B (A≧20>B≧10>C (minute))”.
Taken in the same sequence, the figures for `COc1ccc(-c2nc(CC(=O)O)c(-c3ccc(Cl)s3)o2)cc1Cl` [Preparation Example 280] were not above 0.5 µM and “C (A≧20>B≧10>C (minute))”.
For `CSCc1nc(-c2ccc(C#N)cc2)[nH]c1-c1ccccc1` [Preparation example 132], in that order: 0.5 to 1 µM and “B (A≧20>B≧10>C (minute))”.
For `O=C([O-])Cc1oc(-c2ccc(F)cc2)nc1-c1ccc(Cl)s1.[Na+]` [Preparation Example 487, 4-(5-chloro-thiophen-2-yl)-2-(4-fluorophenyl)oxazol-5-yl acetic acid sodium salt], in data set [1], the EC50 was in the range of 0.5 to 1 µM. Besides, the “100% inhibition time range” value in data set [2] was “C (A≧20>B≧10>C (minute))”.
With `COc1ccc(-c2nc(CC(=O)O)c(-c3ccc(F)c(F)c3)o2)cc1` [Preparation Example 246], the EC50 in data set [1] fell in the range of 0.5 to 1 µM. Besides, the “100% inhibition time range” value in data set [2] is reported as “B (A≧20>B≧10>C (minute))”.
Taken in the same sequence, the figures for `Cc1cc(-c2nc(CC(=O)O)c(-c3ccc(Cl)s3)o2)on1` [Preparation Example 278] were 0.5 to 1 µM and “B (A≧20>B≧10>C (minute))”.
Taken in the same sequence, the figures for `C[S+]([O-])Cc1[nH]c(-c2ccc(F)cc2)nc1-c1ccccc1` (stereo not drawn) [Preparation example 639] were 1 to 3 µM and “C (A≧20>B≧10>C (minute))”.
Consider `Cc1cccc(-c2nc(CC(=O)O)c(-c3cccs3)o2)c1` [Preparation Example 432], for which the EC50 in data set [1] was not above 0.5 µM. For the same compound, the “100% inhibition time range” value in data set [2] was “C (A≧20>B≧10>C (minute))”.
For `Cc1ccc(-c2nc(CC(=O)O)c(-c3ccccc3)o2)cc1` [Preparation Example 262], in that order: 1 to 3 µM and “C (A≧20>B≧10>C (minute))”.
For `CN(C)c1ncc(-c2nc(CC(=O)O)c(-c3ccc(Cl)cc3)o2)cn1` [Preparation Example 473], in that order: 0.5 to 1 µM and “A (A≧20>B≧10>C (minute))”.
With `COCc1ccc(-c2nc(CC(=O)O)c(-c3ccc(Cl)s3)o2)cn1` [Preparation Example 464], the EC50 in data set [1] is 1 to 3 µM. The “100% inhibition time range” value in data set [2] is on record as “C (A≧20>B≧10>C (minute))”.
For `O=C(O)Cc1nc(-c2cc3ccccc3s2)oc1-c1ccc(Cl)s1` [Preparation Example 271], in that order: 0.5 to 1 µM and “C (A≧20>B≧10>C (minute))”.
For the compound `CCOc1ccc(-c2nc(-c3ccc(Cl)s3)c(CC(=O)O)s2)cn1` [Preparation Example 586], the EC50 in data set [1] was not above 0.5 µM. Also, the “100% inhibition time range” value in data set [2] is “B (A≧20>B≧10>C (minute))”.
For `O=C(O)Cc1oc(-c2ccc(F)cc2)nc1-c1ccc(Cl)cc1` [Preparation Example 511], in that order: not above 0.5 µM and “C (A≧20>B≧10>C (minute))”.
On to `CCc1c(-c2cccnc2)nc(-c2ccc(F)cc2)n1CC` [Preparation example 104], for which the EC50 in data set [1] lay in the range of 0.5 to 1 µM. Besides, the “100% inhibition time range” value in data set [2] is “A (A≧20>B≧10>C (minute))”.
For `CN(c1ccc(-c2nc(CC(=O)O)c(-c3ccc(Cl)s3)o2)cn1)C1CC1` [Preparation Example 531], in that order: 1 to 3 µM and “C (A≧20>B≧10>C (minute))”.
Taken in the same sequence, the figures for `Cc1ccc(-c2nc(CC(=O)O)c(-c3ccc(Cl)s3)o2)cn1` [Preparation Example 452] were not above 0.5 µM and “B (A≧20>B≧10>C (minute))”.
Taken in the same sequence, the figures for `Cc1nc(-c2csc(Cl)c2)[nH]c1-c1cccnc1` [Preparation example 54] were 1 to 3 µM and “B (A≧20>B≧10>C (minute))”.
For `O=C(O)Cc1nc(-c2cc3ccccc3s2)oc1-c1ccsc1` [Preparation Example 437], in data set [1], the EC50 is not above 0.5 µM. Moreover, the “100% inhibition time range” value in data set [2] was “B (A≧20>B≧10>C (minute))”.
Taken in the same sequence, the figures for `O=C(O)Cc1nc(-c2ccccc2O)oc1-c1cccs1` [Preparation Example 277] were 0.5 to 1 µM and “C (A≧20>B≧10>C (minute))”.
Taken in the same sequence, the figures for `CN(C)c1ncc(-c2nc(-c3ccc(Cl)s3)c(CC(=O)O)s2)cn1` [Preparation Example 600] were not above 0.5 µM and “A (A≧20>B≧10>C (minute))”.
Turning to `COc1ccc(-c2nc(CC(=O)O)c(-c3cccs3)o2)cc1` [Preparation Example 155], the EC50 in data set [1] fell in the range of 1 to 3 µM. Also, in data set [2], the “100% inhibition time range” value was “B (A≧20>B≧10>C (minute))”.
For `O=C(O)Cc1nc(-c2cc3ccccc3s2)oc1-c1cccs1` [Preparation Example 267], in that order: not above 0.5 µM and “C (A≧20>B≧10>C (minute))”.
Regarding `O=C(O)Cc1nc(-c2ccc(Cl)cc2)oc1-c1ccc(Cl)s1` [Preparation Example 275], the EC50 in data set [1] is not above 0.5 µM. The “100% inhibition time range” value in data set [2] was “A (A≧20>B≧10>C (minute))”.
On to `Clc1ccc(-c2ncc(-c3cccnc3)[nH]2)s1` [Preparation example 25], for which the EC50 in data set [1] was not above 0.5 µM. For the same compound, in data set [2], the “100% inhibition time range” value was “B (A≧20>B≧10>C (minute))”.
For `CC(C)c1ccc(-c2oc(-c3ccc(F)cc3)nc2CC(=O)O)cc1` [Preparation Example 248], in that order: 1 to 3 µM and “B (A≧20>B≧10>C (minute))”.
For the compound `CCc1nc(-c2ccc(Cl)cc2)[nH]c1-c1cccnc1` [Preparation example 56], the EC50 in data set [1] was in the range of 0.5 to 1 µM. The “100% inhibition time range” value in data set [2] is listed as “B (A≧20>B≧10>C (minute))”.
Regarding `CCCc1nc(-c2ccc(F)cc2)[nH]c1-c1ccccc1` [Preparation example 88], the EC50 in data set [1] was 1 to 3 µM. Besides, the “100% inhibition time range” value in data set [2] is reported as “B (A≧20>B≧10>C (minute))”.
Turning to `CCNC(=O)Cc1nc(-c2ccc(F)cc2)oc1-c1ccsc1` [Preparation Example 616], the EC50 in data set [1] fell in the range of 1 to 3 µM. Besides, the “100% inhibition time range” value in data set [2] is given as “B (A≧20>B≧10>C (minute))”.
For `O=C(O)Cc1nc(-c2ccc(F)cc2)oc1-c1ccc(F)cc1` [Preparation Example 235], in that order: 0.5 to 1 µM and “B (A≧20>B≧10>C (minute))”.
For `O=C(O)Cc1sc(-c2ccc(F)cc2)nc1-c1ccc(Cl)c(F)c1` [Preparation Example 584], in that order: 1 to 3 µM and “A (A≧20>B≧10>C (minute))”.
Taken in the same sequence, the figures for `CSc1ncc(-c2nc(-c3ccc(Cl)s3)c(CC(=O)O)s2)cn1` [Preparation Example 572] were 1 to 3 µM and “C (A≧20>B≧10>C (minute))”.
As to `O=C(O)Cc1nc(-c2ccc3c(c2)CCO3)oc1-c1ccc(Cl)s1` [Preparation Example 282], the EC50 in data set [1] is 0.5 to 1 µM. Further, the “100% inhibition time range” value in data set [2] is listed as “B (A≧20>B≧10>C (minute))”.
